Measured values reported in patent US20170252278A1, “INHIBITION OF MATURATION OF DENTAL BIOFILM AND CARIOGENIC PROPERTIES” (KONINKLIJKE PHILIPS N.V., priority 2014, published 2017).

Columns and labels:
Assay type in all cases: cell-based
[1] = test system: in vitro oral plaque biofilms; experiment: Lactic acid production assay of in vitro oral plaque biofilms
Experimental: All compounds tested of Table 1 were obtained from Sigma Aldrich. All compounds of Table 2, except 3-oxo-N(2oxocyclohexyl)dodecanamide, were kindly provided by M. Meijler, University of the Negev, Israel. The compounds were dissolved in DMSO and stored at −20 C. The compounds were continuously present at the indicated concentrations during biofilm growth, but not during further phenotypic analysis, i.e. lactate production.
(§1) To estimate the cariogenic phenotype, lactic acid production of the in vitro oral plaque biofilms was determined prior to harvesting (Exerkate et al 2010). In short, the biofilms on coverslips were placed in a 24-well plate containing 1.5 ml of BPW with 0.2% sucrose. Lactic acid formation was allowed for 3 hr at 37° C. under anaerobic conditions. The total amount of lactic acid produced in this period was analyzed using a colorimetric assay described previously (van Loveren et al. (2000)) and expressed as mM lactic acid, and as μM lactic acid per 1×10^6 CFU.
Biofilms were grown for 48 h in buffered McBain medium supplemented with 0.2% sucrose in the presence of 100 μM of one of the compounds. Medium was refreshed twice every day. […]

[2] = test system: in vitro oral plaque biofilms; experiment: Microbial composition of biofilms by 16S rDNA sequencing; settings: for Actinobacillus, share of biofilm composition / Actinomyces, share of biofilm composition / Campylobacter, share of biofilm composition / Fusobacterium, share of biofilm composition / Granulicatella, share of biofilm composition / Haemophilus, share of biofilm composition / Megasphaera, share of biofilm composition / Neisseria, share of biofilm composition / Other taxa, share of biofilm composition / Porphyromonas, share of biofilm composition / Prevotella, share of biofilm composition / Rothia, share of biofilm composition / Solobacterium, share of biofilm composition / Streptococcus, share of biofilm composition / Unclass. Pasteurellaceae, share of biofilm composition / Veillonella, share of biofilm composition: 3-Oxo-N 100 μM, furanones 10 μM
Experimental: DNA was isolated using phenol bead-beating followed by Agowa isolation, following the manufacturers instructions (LGC Genomics, Mag mini kit). Briefly, cells were mechanically disrupted four times at 1200 rpm for two minutes in addition of Tris-saturated Phenol, pH8, 0.1 mm zirconium beads and Mag lysis buffer. The DNA-containing phase was mixed with binding buffer and magnetic beads. DNA concentration was estimated by determining the absorbance at 260 nm using the nanodrop (Isogen, ND-1000).
PCR was performed in a final volume of 25 μl containing 1 μl of each primer ([…]), 1 μl dNTP (10 mM), 2.5 μl 10× DreamTaq Buffer including MgCl2 (Thermo Scientific), 0.2 μl DreamTaq DNA Polymerase (5 u/μ1, Thermo Scientific) and 50 ng of DNA. Initial denaturation was performed at 94° C. for 4 min, followed by 35 cycles of denaturation at 94° C. for 30 s, 54° C. annealing for 1 min, 72° C. for 1 min primer extension and a final extension at 72° C. for 5 min. Product formation was confirmed by electrophoresis of 5 μl on a 1% (w/v) agarose gel (Sphearo Q, Leiden, The Netherlands) stained with ethidium bromide.
These samples were analyzed by 16S rDNA Illumina sequencing at TNO Zeist (Netherlands).
Table 3. Microbial composition of biofilms grown for 48 (Table 3A) or 96 h (Table 3B) in the presence of different QS inhibitors. Composition was determined by 16S rDNA sequencing. The composition of the original inoculum used for all biofilms was also determined. “Unclass.” means: unclassified.

[3] = test system: in vitro oral plaque biofilms; experiment: In vitro oral plaque biofilm formation in the Amsterdam Active Attachment Model, CFU determination; settings: for in vitro oral plaque biofilm formation, Colony Forming Units: FIG. 1
Experimental: Stimulated saliva, used as inoculum, was collected on ice from ten donors. Saliva was donated 24 h after last brushing. The saliva was diluted 2-fold with 60% sterile glycerol, aliquoted and stored at −80° C. Before use, a pooled sample was prepared by mixing 200 μl of thawed saliva of each donor and vortexing for 30 seconds. In vitro oral plaque biofilms were inoculated 1:50 with pooled saliva.
In vitro oral plaque biofilms were grown in the Amsterdam Active Attachment Model (AAA-model, Exterkate et al. (2010)), assembled with glass coverslips (diameter 12 mm; Menzel, Braunschweig, Germany). The model was inoculated for 8 h with pooled saliva in buffered semi-defined McBain medium (2.5 g/l mucin (Sigma, St Louis, Mo.), 2.0 g/l Bacto peptone (Difco, Detroit, Mich.), 2.0 g/l Trypticase peptone (BBL, Cockeysville, Md.), 1.0 g/l yeast extract (BD Diagnostic Systems, Sparks, Md.), 0.35 g/l NaCl, 0.2 g/l KCl, 0.2 g/l CaCl2, 1 mg/l hemin (Sigma, St. Louis, Mo., USA), and 2 mg/l vitamin K1 (McBain et al. (2005)), with 50 mmol/1 PIPES at pH 7.0), with 0.2% sucrose.
In vitro oral plaque biofilms were grown in the AAA-model for 48-96 h in the presence of the compounds tested. The model was inoculated with saliva and incubated anaerobically at 37° C. for 8 hours to allow microbes to attach to the glass coverslips. After 8 hours of attachment, the inoculation medium was refreshed and in vitro oral plaque biofilms were grown for 16 hours. This refreshment routine was repeated daily until the day of harvesting.
In vitro oral plaque biofilms were harvested by transferring the glass coverslips into 2 ml phosphate buffered saline (PBS). The biofilms were dispersed using a Vibracell VCX130 sonicator with a maximum of 130 Watts and 20 kHz (Sonics & Materials, Newtown, USA). Bio films were sonicated on ice for 1 minute with a pulse rate of 50% and pulses of 1 second. Vibration amplitude was set to 40%.
To estimate the amount of in vitro oral plaque biofilm formation, total anaerobic colony forming units were determined. Briefly, serial dilutions of the dispersed bio films were made and plated on tryptic soy agar blood plates. Plates were subsequently incubated anaerobically for 96 h at 37° C. and colony forming units were determined by counting the number of colonies for each dilution.

[4] = test system: in vitro oral plaque biofilms; experiment: Lactic acid production of biofilms grown with 3-oxo-N(2-oxocyclohexyl)dodecanamide and C12-HSL (interference test); settings: all concentrations (25 or 100 μM), with 0, 25 or 100 μM C12-HSL; 48 h growth
Experimental: as §1
In this experiment the effect of the quorum sensing molecule C12-HSL on the lactate reducing activity of 3-Oxo-N-(2-oxocyclohexyl)dodecanamide was tested. Biofilms were grown for 48 h in buffered McBain medium supplemented with 0.2% sucrose, in the presence of 0, or 25 or 100 μM 3-oxo-N(2-oxocyclohexyl)dodecanamide and 0, or 25 or 100 μM of C12-HSL. Medium was refreshed twice every day. After 48 h of growth, biofilms were transferred to BPW with 0.2% sucrose, and biofilms were allowed to produce lactate for 3 h.

`CCCCCCCCCC(=O)CC(=O)NC1CCCCC1=O` (stereo not shown) [3-Oxo-N, 3-oxo-N-(2-oxocyclohexyl)dodecanamide] was tested, and the “lactate production (FIG. 4A)” value ([1]; 10 μM) was “significantly reduces”, the “lactate production (FIG. 4A)” value ([1]; 100 μM) was “almost completely blocked” and the “lactate production corrected for CFU (FIG. 4B)” value ([1]; 100 μM or 10 μM) was “still lower”. The “total lactic acid production per biofilm (FIG. 2)” value ([1]; 100 μM, biofilms grown 48 h, 3 h in BPW with 0.2% sucrose) was “reduced lactic acid production”, the “lactate production after 96 hours of growth” value ([1]; 96 hours of growth) was “the reducing effect was still present” and the “Streptococcus reduced versus control” value ([2]; 100 μM, 48 h) was “more than 30%”. For the same molecule, the “Veillonella more abundant than in control” value ([2]; 100 μM, 48 h) was 10%, the “change in Actinobacillus species versus control” value ([2]; 100 μM, 48 h) was “increase” and the “Actinobacillus, share of biofilm composition” value ([2]; 48 h) was 27.6%. The “Actinomyces, share of biofilm composition” value ([2]; 48 h) was 0.0%, the “Campylobacter, share of biofilm composition” value ([2]; 48 h) was 1.1% and the “Fusobacterium, share of biofilm composition” value ([2]; 48 h) was 0.0%. The “Granulicatella, share of biofilm composition” value ([2]; 48 h) was 0.0%, the “Haemophilus, share of biofilm composition” value ([2]; 48 h) was 0.2% and the “Megasphaera, share of biofilm composition” value ([2]; 48 h) was 0.0%. The “Neisseria, share of biofilm composition” value ([2]; 48 h) was 0.0%, the “Other taxa, share of biofilm composition” value ([2]; 48 h) was 0.1% and the “Porphyromonas, share of biofilm composition” value ([2]; 48 h) was 0.0%. For the same molecule, the “Prevotella, share of biofilm composition” value ([2]; 48 h) was 0.0%, the “Rothia, share of biofilm composition” value ([2]; 48 h) was 0.0% and the “Solobacterium, share of biofilm composition” value ([2]; 48 h) was 0.0%. For the same molecule, the “Streptococcus, share of biofilm composition” value ([2]; 48 h) was 34.3%, the “Unclass. Pasteurellaceae, share of biofilm composition” value ([2]; 48 h) was 0.6% and the “Veillonella, share of biofilm composition” value ([2]; 48 h) was 36.0%. The “Actinobacillus, share of biofilm composition” value ([2]; 96 h) was 12.0%, the “Actinomyces, share of biofilm composition” value ([2]; 96 h) was 0.0% and the “Campylobacter, share of biofilm composition” value ([2]; 96 h) was 7.2%. For the same molecule, the “Fusobacterium, share of biofilm composition” value ([2]; 96 h) was 0.0%, the “Granulicatella, share of biofilm composition” value ([2]; 96 h) was 0.0% and the “Haemophilus, share of biofilm composition” value ([2]; 96 h) was 0.1%. The “Megasphaera, share of biofilm composition” value ([2]; 96 h) was 0.0%, the “Neisseria, share of biofilm composition” value ([2]; 96 h) was 0.0% and the “Other taxa, share of biofilm composition” value ([2]; 96 h) was 0.3%. For the same molecule, the “Porphyromonas, share of biofilm composition” value ([2]; 96 h) was 0.0%, the “Prevotella, share of biofilm composition” value ([2]; 96 h) was 0.0% and the “Rothia, share of biofilm composition” value ([2]; 96 h) was 0.0%. The “Solobacterium, share of biofilm composition” value ([2]; 96 h) was 0.0%, the “Streptococcus, share of biofilm composition” value ([2]; 96 h) was 28.7% and the “Unclass. Pasteurellaceae, share of biofilm composition” value ([2]; 96 h) was 0.0%. For the same molecule, the “Veillonella, share of biofilm composition” value ([2]; 96 h) was 51.7%, the “inhibitory concentration (concentration that completely inhibits oral plaque biofilm growth)” value [3] was “above 800 μM” and the “in vitro oral plaque biofilm formation, Colony Forming Units” value ([3]; 100 μM, control 1.5×10^9 CFU) was “up to 6.6×10^8 CFU”. For the same molecule, the “biofilm production (visible amount of biofilm)” value ([3]; Example 2, 100 μM, 48 h) was “normal amounts of biofilm”, the “in vitro oral plaque biofilm formation, Colony Forming Units” value ([3]; all the other concentrations (below 100 μM), same as control) was 1.5×10^9 CFU and the “effect on in vitro oral plaque biofilm formation” value ([3]; highest concentration tested (100 μM)) was “slightly affected”. The “total lactic acid production per biofilm vs control (FIG. 3)” value [4] was “statistical significant difference”.
